In patent EP1247803A2, “Indolinone compounds suitable for modulation of protein kinases” (Sugen, Inc., priority 1996, dated 1998):

Experiments:
MET = MET biochemical kinase assay; set-up: species or system human; concentration or dose not given beside the values
In short: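 Colorimetric signal from an HRP-linked anti-phosphotyrosine antibody with TMB measures phosphate incorporated into immobilised MET. The receptor is pulled from lysates by a polyclonal antibody against its cytoplasmic domain, then reacts in ATP- and metal-containing buffer with test compound.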

EGFR = target: T1, EGFR (Homo sapiens, UniProt P00533); experiment: EGFR ELISA assay (in vitro kinase activity, EGFR captured from A431 cell lysate); format: biochemical; set-up: concentration or dose not given beside the values
T1 construct: Add 7 ug A431 cell lysate per well (EGFR source); endogenous in cells; host or cells: A431
T1 sequence (P00533 25-1210): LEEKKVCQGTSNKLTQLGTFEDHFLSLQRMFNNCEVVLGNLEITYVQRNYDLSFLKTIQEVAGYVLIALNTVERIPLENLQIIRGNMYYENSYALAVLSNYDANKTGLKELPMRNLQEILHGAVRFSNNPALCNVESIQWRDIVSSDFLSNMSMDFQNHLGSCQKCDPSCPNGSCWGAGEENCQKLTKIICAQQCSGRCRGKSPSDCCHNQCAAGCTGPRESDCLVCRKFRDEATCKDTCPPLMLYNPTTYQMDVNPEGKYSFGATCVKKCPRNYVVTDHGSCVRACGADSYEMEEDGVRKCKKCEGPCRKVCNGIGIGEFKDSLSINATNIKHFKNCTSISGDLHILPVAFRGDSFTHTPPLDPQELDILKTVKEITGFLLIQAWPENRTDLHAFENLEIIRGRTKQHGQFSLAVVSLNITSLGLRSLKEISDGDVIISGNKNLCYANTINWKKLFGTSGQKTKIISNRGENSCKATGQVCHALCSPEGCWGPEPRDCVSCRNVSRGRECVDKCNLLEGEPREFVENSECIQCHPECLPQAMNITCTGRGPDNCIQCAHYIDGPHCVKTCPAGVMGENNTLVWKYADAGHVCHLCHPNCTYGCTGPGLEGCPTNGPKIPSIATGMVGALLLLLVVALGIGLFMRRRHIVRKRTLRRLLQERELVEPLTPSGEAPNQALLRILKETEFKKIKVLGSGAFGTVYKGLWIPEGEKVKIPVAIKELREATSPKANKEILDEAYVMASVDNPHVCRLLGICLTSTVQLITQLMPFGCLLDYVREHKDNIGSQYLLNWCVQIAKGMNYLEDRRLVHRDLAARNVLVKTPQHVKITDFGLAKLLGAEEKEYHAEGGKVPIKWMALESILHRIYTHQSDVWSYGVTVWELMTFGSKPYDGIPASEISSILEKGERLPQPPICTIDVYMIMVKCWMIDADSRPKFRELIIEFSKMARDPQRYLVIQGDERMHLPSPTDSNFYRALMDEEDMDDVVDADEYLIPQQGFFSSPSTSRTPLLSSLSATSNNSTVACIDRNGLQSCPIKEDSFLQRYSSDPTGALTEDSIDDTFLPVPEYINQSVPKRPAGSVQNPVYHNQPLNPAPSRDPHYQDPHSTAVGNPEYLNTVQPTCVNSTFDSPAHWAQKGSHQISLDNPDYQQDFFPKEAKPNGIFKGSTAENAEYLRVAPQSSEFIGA
In short: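 EGFR from A431 lysate was captured on anti-EGFR antibody-coated plates and preincubated with compounds for 30 min. Autophosphorylation ran 5 min with 3 uM ATP and 5 mM MnCl2 (final), stopped with 20 mM EDTA. Phosphotyrosine was detected by anti-pTyr ELISA with ABTS/H2O2, read at 410 nm.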

SMILES	Met Kinase % Inhibition (MET) [%]	Biochem EGFR %Inhibition (EGFR) [%]
CCOC(=O)c1c(C)[nH]c(C=C2C(=O)Nc3ccc(CCCl)cc32)c1C [10718/G02]	67.7	49.2
O=C1Nc2ccc(I)cc2C1=Cc1ccc(F)cc1C(F)(F)F [10719/B11]	36.5	-23.9
CCc1c(C)[nH]c(C=C2C(=O)Nc3ccc(I)cc32)c1C [10719/B05]	33.6	35.9
O=C1Nc2ccc(S(=O)(=O)Nc3ccc(C(F)(F)F)cc3)cc2C1=Cc1ccc([N+](=O)[O-])cc1 [10734/E06]	50.6	6.3
Cc1c(Br)ccc2c1C(=Cc1ccc(O)c(O)c1)C(=O)N2 [10719/C03]	69.1	60.6
Cc1c(O)ccc(C=C2C(=O)Nc3ccc(S(=O)(=O)N4CCOCC4)cc32)c1O [10718/F09]	52.7	-9.5
CCOC(=O)c1c(C)[nH]c(C=C2C(=O)Nc3ccc(S(=O)(=O)N4CCOCC4)cc32)c1C [10718/F02]	66.7	17.8
COc1ccc(C=C2C(=O)Nc3ccc(Br)c(C)c32)c(OC)c1 [10719/C04]	14.7	14.4
O=C1Nc2ccc(I)cc2C1=Cc1ccc(O)c(O)c1 [10719/B03]	85.8	59.5
COc1cc(Br)c(O)c(C=C2C(=O)Nc3ccc(CCCl)cc32)c1 [10718/G03]	77.9	57.3
O=C1Nc2ccc(I)cc2C1=Cc1ccc(O)cc1 [10719/B07]	52.2	23.7
O=C1Nc2ccc(CCCl)cc2C1=Cc1cc(Cl)ccc1O [10734/G04]	72.1	62.9
O=C1Nc2ccc(S(=O)(=O)N3CCOCC3)cc2C1=Cc1ccc([N+](=O)[O-])o1 [10718/F11]	31.3	-3.9
O=C1Nc2c(Br)cc(Br)cc2C1=Cc1ccc(F)cc1Cl [10719/A09]	47.0	2.2
O=C1Nc2ccc(CCCl)cc2C1=Cc1ccco1 [10718/G10]	10.8	-7.5
CCOC(=O)CCc1c(C(=O)OCC)[nH]c(C=C2C(=O)Nc3ccc(CCCl)cc32)c1CC(=O)OCC [10718/G05]	60.3	2.8
CCOc1ccc(C=C2C(=O)Nc3ccc(Br)c(C)c32)cc1OC [10719/C02]	41.3	10.2
Cc1c(Br)ccc2c1C(=Cc1ccc(F)cc1Cl)C(=O)N2 [10719/C09]	8.9	-0.1
COC(=O)c1[nH]c(C)c(C=C2C(=O)Nc3ccc(S(=O)(=O)N4CCOCC4)cc32)c1C(=O)OC [10718/F07]	67.9	-6.3
O=C1Nc2ccc(I)cc2C1=Cc1cccs1 [10717/B03]	90.5	7.3
